Laboratory results: patent US5922724A, “Benzimidazole compounds and their use as modulators of the GABA a receptor complex” (Neurosearch A/S, priority 1995, dated 1999)

Molecular target: benzodiazepine receptor sites (GABAA receptor complex)
Assay: Displacement of ^3 H-flunitrazepam (^3 H-FNM) binding to rat cerebral cortex membranes
Parameters: species or system male Wistar rats (cerebral cortex)
Settings: ^3 H-FNM 1 nM, 40 min at 2° C., pH 7.1, non-specific binding with clonazepam 1 μM, read-out: IC50 (concentration of the test substance which inhibits the specific binding of ^3 H-FNM by 50%)
Source text: At present two types of GABA receptors are known, the GABAA and the GABAB receptors. […] Activation of GABA receptors leads to alternations in membrane potential (hyperpolarization). The GABAA receptors are associated with chloride influx through its associated and integrated chloride channel, whereas GABAB receptor activation indirectly alters potassium and calcium channels as well as modifies second messenger production. The GABAA recognition sites can be activated by GABA, muscimol; and isoguvacine for example, but not by GABAB agonists such as for example baclofen. The modulatory GABAA recognition site at the benzodiazepine receptor sites can be selectively radiolabelled with ^3 H-flunitrazepam. The affinity of various potential ligands for the benzodiazepine receptor sites can thus be evaluated by estimating the ability of test compounds to displace ^3 H-flunitrazepam.
Preparations are performed at 0-4° C. unless otherwise indicated. Cerebral cortex from male Wistar rats (150-200 g) is homogenized for 5-10 sec in 20 ml Tris-HCl (30 mM, pH 7.4) using an Ultra-Turrax homogenizer. […]
The membrane preparation is thawed and centrifuged at 2° C. for 10 min at 27,000× g. […] Non-specific binding is determined using clonazepam (1 μM, final concentration). […] The amount of radioactivity on the filters is determined by conventional liquid scintillation counting. […]

SMILES | IC50 [nM]
c1cc(-n2ccnc2)cc(-n2cnc3cc(-c4ccoc4)ccc32)c1 [1-(3-(1-Imidazolyl)phenyl)-5-(3-furanyl)benzimidazole] | 0.4
Cc1nccn1-c1cccc(-n2cnc3cc(-c4ccoc4)ccc32)c1 [1-(3-(2-Methylimidazol-1-yl)phenyl)-5-(3-furanyl)benzimidazole] | 0.4
